Source: BindingDB's records for doi:10.1111/cbdd.12307 (Peking University, 2014)

Each compound was assayed against T1, Phospholipase A2, membrane associated (Homo sapiens, UniProt P14555) (assay: Inhibitory Activity Assay). Settings: pH 8.
T1 sequence (P14555 whole entry): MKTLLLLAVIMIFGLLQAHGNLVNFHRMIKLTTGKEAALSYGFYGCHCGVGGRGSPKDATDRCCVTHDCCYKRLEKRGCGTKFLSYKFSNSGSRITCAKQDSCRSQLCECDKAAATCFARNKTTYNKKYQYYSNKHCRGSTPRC
Protocol: The reaction mixture contained 160 uL of reaction buffer [50 mM Tris-HCl (pH 8.0), 100 mM NaCl, 5 ug/mL bovine serum albumin (BSA), 5 uM CaCl2, and 10 mM anilinonaphthalene sulfonate (ANS)], 20 uL of substrate stock solution (2 mM DMPC), and 2 mM of sodium deoxycholate in water. After 5 min of sonication, 10 uL of inhibitor stock solution (in DMSO) were incubated at 28 uC for 10 min. The reactions were started by adding 10 uL of hnps-PLA2 stock solution (0.1 mg/mL) and monitored by excitation at 377 nm and emission at 470 nm.

| SMILES | IC50 [µM] |
| --- | --- |
| O=C(CCc1ccccc1)CC[C@H](NC(=O)OCC1c2ccccc2-c2ccccc21)C(=O)O [DCSD 001850 (5)] | 34.5 |
| O=C(N[C@H](Cc1ccccc1)C(=O)O)OCC1c2ccccc2-c2ccccc21 [DCSD 002855 (1)] | 47.5 |
| O=C(N[C@@H](Cc1ccc(O)c([NH+]([O-])O)c1)C(=O)O)OCC1c2ccccc2-c2ccccc21 (some centres not stated) [DCSD 002267 (4)] | 41 |

Compounds with a lower IC50, results first:

| IC50 [µM] | SMILES |
| --- | --- |
| 9 | O=C(COc1ccc(/C=N/NC(=O)c2ccccc2[NH+]([O-])O)cc1)Nc1cccc([NH+]([O-])O)c1 (configuration not stated) [SPECS AG-690/40696769 (6)] |
| 21.4 | O=C(N[C@@H](Cc1ccc([NH+]([O-])O)cc1)C(=O)O)OCC1c2ccccc2-c2ccccc21 (some centres not stated) [DCSD 001360 (3)] |
| 12.2 | O=C(COc1ccc2ccccc2c1)N/N=C/c1cccc(OC(=O)c2cc([NH+]([O-])O)cc([NH+]([O-])O)c2)c1 (configuration not stated) [SPECS AG-690/40108589 (7)] |
| 8.6 | O=C(N[C@H](Cc1ccc2ccccc2c1)C(=O)O)OCC1c2ccccc2-c2ccccc21 [DCSD 002847 (2)] |
